The NIST ThermoML archive (doi:10.1021/acs.jced.5b00407)

Experiments:
[1] = mn = molality of the nth substance listed, in mol/kg; conditions: 101.3 kPa, Liquid; for viscosity: Capillary tube (Ostwald / Ubbelohde) method; for mass density: Vibrating tube method
[2] = refractive index (Na D-line) (dimensionless); mn = molality of the nth substance listed, in mol/kg; conditions: 101.3 kPa, Liquid, Standard Abbe refractometry

O=C([O-])[C@H](O)[C@@H](O)[C@H](O[C@@H]1O[C@H](CO)[C@H](O)[C@H](O)[C@H]1O)[C@H](O)CO.[Na+] [sodium lactobionate] + O
Conditions | mass density, [1] [kg/m3] | refractive index, [2] | viscosity, [1] [mPa·s]
288.15 K, m1 = 0.0251 | – | – | 1.157
288.15 K, m1 = 0.0502 | 1010.5 | – | 1.177
288.15 K, m1 = 0.0753 | 1015.2 | – | 1.211
288.15 K, m1 = 0.1 | 1020.1 | – | 1.257
288.15 K, m1 = 0.126 | 1024.5 | – | 1.286
288.15 K, m1 = 0.151 | 1029.1 | – | 1.332
288.15 K, m1 = 0.176 | 1034.1 | – | 1.374
288.15 K, m1 = 0.201 | 1039 | – | 1.432
293.15 K, m1 = 0.0251 | – | 1.3331 | 1.018
293.15 K, m1 = 0.0502 | 1009.1 | 1.3344 | 1.036
293.15 K, m1 = 0.0753 | 1013.9 | 1.336 | 1.066
293.15 K, m1 = 0.1 | 1018.9 | 1.3376 | 1.106
293.15 K, m1 = 0.126 | 1023.3 | 1.3392 | 1.132
293.15 K, m1 = 0.151 | 1028.1 | 1.3406 | 1.171
293.15 K, m1 = 0.176 | 1033 | 1.3421 | 1.208
293.15 K, m1 = 0.201 | 1037.7 | 1.3435 | 1.26
298.15 K, m1 = 0.0251 | – | 1.3326 | 0.9041
298.15 K, m1 = 0.0502 | 1007.6 | 1.3339 | 0.9201
298.15 K, m1 = 0.0753 | 1012.6 | 1.3354 | 0.9457
298.15 K, m1 = 0.1 | 1017.7 | 1.337 | 0.9824
298.15 K, m1 = 0.126 | 1022.1 | 1.3385 | 1.006
298.15 K, m1 = 0.151 | 1026.9 | 1.34 | 1.041
298.15 K, m1 = 0.176 | 1031.8 | 1.3415 | 1.074
298.15 K, m1 = 0.201 | 1036.4 | 1.343 | 1.119
303.15 K, m1 = 0.0251 | – | 1.3321 | 0.8091
303.15 K, m1 = 0.0502 | 1006.2 | 1.3334 | 0.8233
303.15 K, m1 = 0.0753 | 1011.2 | 1.3348 | 0.8464
303.15 K, m1 = 0.1 | 1016.4 | 1.3364 | 0.8796
303.15 K, m1 = 0.126 | 1020.8 | 1.3378 | 0.9001
303.15 K, m1 = 0.151 | 1025.5 | 1.3393 | 0.9321
303.15 K, m1 = 0.176 | 1030.3 | 1.3409 | 0.9614
303.15 K, m1 = 0.201 | 1035.1 | 1.3425 | 1.002
308.15 K, m1 = 0.0251 | – | 1.3316 | 0.7289
308.15 K, m1 = 0.0502 | 1004.5 | 1.3328 | 0.7415
308.15 K, m1 = 0.0753 | 1009.7 | 1.3342 | 0.7623
308.15 K, m1 = 0.1 | 1014.9 | 1.3357 | 0.7921
308.15 K, m1 = 0.126 | 1019.4 | 1.3371 | 0.8111
308.15 K, m1 = 0.151 | 1023.9 | 1.3387 | 0.8399
308.15 K, m1 = 0.176 | 1028.8 | 1.3403 | 0.8655
308.15 K, m1 = 0.201 | 1033.5 | 1.342 | 0.9029
313.15 K, m1 = 0.0251 | – | 1.331 | 0.6612
313.15 K, m1 = 0.0502 | 1003.1 | 1.3322 | 0.6729
313.15 K, m1 = 0.0753 | 1008.1 | 1.3335 | 0.692
313.15 K, m1 = 0.1 | 1013.3 | 1.335 | 0.7187
313.15 K, m1 = 0.126 | 1017.8 | 1.3364 | 0.7357
313.15 K, m1 = 0.151 | 1022.1 | 1.338 | 0.7622
313.15 K, m1 = 0.176 | 1027.2 | 1.3397 | 0.7851
313.15 K, m1 = 0.201 | 1031.8 | 1.3415 | 0.8191
318.15 K, m1 = 0.0251 | – | 1.3304 | 0.6029
318.15 K, m1 = 0.0502 | 1001.6 | 1.3316 | 0.6136
318.15 K, m1 = 0.0753 | 1006.5 | 1.3329 | 0.6313
318.15 K, m1 = 0.1 | 1011.5 | 1.3343 | 0.6556
318.15 K, m1 = 0.126 | 1015.9 | 1.3357 | 0.6711
318.15 K, m1 = 0.151 | 1020.5 | 1.3373 | 0.6951
318.15 K, m1 = 0.176 | 1025.3 | 1.3391 | 0.7157
318.15 K, m1 = 0.201 | 1030 | 1.3409 | 0.7469
323.15 K, m1 = 0.0251 | – | 1.3297 | 0.5523
323.15 K, m1 = 0.0502 | 999.8 | 1.3309 | 0.5625
323.15 K, m1 = 0.0753 | 1004.7 | 1.3322 | 0.5789
323.15 K, m1 = 0.1 | 1009.5 | 1.3336 | 0.6009
323.15 K, m1 = 0.126 | 1013.9 | 1.3349 | 0.6151
323.15 K, m1 = 0.151 | 1018.4 | 1.3365 | 0.6372
323.15 K, m1 = 0.176 | 1023.2 | 1.3384 | 0.6565
323.15 K, m1 = 0.201 | 1028 | 1.3404 | 0.6849
